Broadly, the IC50 is the concentration needed to halve the response being measured. For orientation: Ki means a measure of affinity in units of concentration, obtained from inhibition or displacement.

Data set [1] is described as follows: DRUGMATRIX: Calcium Channel Type L, Dihydropyridine radioligand binding (ligand: [3H] Nitrendipine). It is filed as cell membranes, Rattus norvegicus, Wistar, Cerebral cortex, Membrane. As to conditions: Not Active = under 50% inhibition at 10 µM.
Data set [2] can be described thus: DRUGMATRIX: Glutamate, Kainate radioligand binding (ligand: [3H] Kainic acid). As to conditions: Not Active = under 50% inhibition at 10 µM. The data set is classed as cell membranes, Rattus norvegicus, Wistar, Brain, Membrane.
Data set [3] concerns the target Kappa-type opioid receptor (Homo sapiens, UniProt P41145). Kind of data set: DRUGMATRIX: Opiate kappa (OP2, KOP) radioligand binding (ligand: [3H] Diprenorphine). The data set is classed as cell membranes, HEK293, Membrane. As to conditions: hek293; Not Active = under 50% inhibition at 10 µM.
For the next data set, the target named is T1, Adenosine receptor A1 (Homo sapiens, UniProt P30542).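 Further: radioligand binding assay at the adenosine A1 receptor, with DPCPX serving as the labelled ligand; in other assays of this panel Not Active means under 50% inhibition at 10 µM.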
T1 sequence (P30542 whole entry): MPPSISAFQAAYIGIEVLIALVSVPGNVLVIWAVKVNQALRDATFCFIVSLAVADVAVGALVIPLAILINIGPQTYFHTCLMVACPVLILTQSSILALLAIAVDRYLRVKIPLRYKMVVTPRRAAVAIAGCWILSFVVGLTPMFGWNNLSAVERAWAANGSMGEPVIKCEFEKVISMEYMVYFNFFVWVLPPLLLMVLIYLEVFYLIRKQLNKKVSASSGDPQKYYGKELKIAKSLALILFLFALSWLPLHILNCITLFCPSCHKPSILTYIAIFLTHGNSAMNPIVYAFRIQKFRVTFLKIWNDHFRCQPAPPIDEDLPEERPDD
It is filed as cell membranes, Membrane. The conditions noted are these: cho.

For another data set, the target named is T2, Cytochrome P450 1A2 (Homo sapiens, UniProt P05177). Further: in other assays of this panel Not Active means under 50% inhibition at 10 µM.
T2 sequence (P05177 whole entry): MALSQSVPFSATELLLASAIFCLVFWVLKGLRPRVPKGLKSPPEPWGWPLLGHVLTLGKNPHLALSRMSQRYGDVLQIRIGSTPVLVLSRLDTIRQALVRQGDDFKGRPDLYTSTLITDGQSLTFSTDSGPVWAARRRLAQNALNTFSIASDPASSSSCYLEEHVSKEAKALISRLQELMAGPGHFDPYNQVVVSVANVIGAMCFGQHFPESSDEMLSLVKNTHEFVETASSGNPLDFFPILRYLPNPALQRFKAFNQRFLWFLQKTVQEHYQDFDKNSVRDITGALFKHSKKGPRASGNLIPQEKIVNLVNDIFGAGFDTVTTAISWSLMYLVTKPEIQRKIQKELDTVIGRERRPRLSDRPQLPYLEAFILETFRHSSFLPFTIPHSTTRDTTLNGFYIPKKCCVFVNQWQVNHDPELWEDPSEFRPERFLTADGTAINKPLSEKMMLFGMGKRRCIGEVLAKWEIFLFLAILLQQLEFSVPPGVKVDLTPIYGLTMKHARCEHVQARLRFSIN
As to conditions: bti-tn-5b1-4.

Data set [4] concerns the target Sigma non-opioid intracellular receptor 1 (Homo sapiens, UniProt Q99720). Nature of the data set: DRUGMATRIX: Sigma1 radioligand binding (ligand: [3H] Haloperidol). The data set is classed as cell membranes, Jurkat, Membrane. The conditions noted are these: jurkat; Not Active = under 50% inhibition at 10 µM.
For another data set, the target named is Cytochrome P450 2D6 (Homo sapiens, UniProt P10635). As to conditions: bti-tn-5b1-4. Further: in other assays of this panel Not Active means under 50% inhibition at 10 µM.
Sequence of Cytochrome P450 2D6 (P10635 whole entry): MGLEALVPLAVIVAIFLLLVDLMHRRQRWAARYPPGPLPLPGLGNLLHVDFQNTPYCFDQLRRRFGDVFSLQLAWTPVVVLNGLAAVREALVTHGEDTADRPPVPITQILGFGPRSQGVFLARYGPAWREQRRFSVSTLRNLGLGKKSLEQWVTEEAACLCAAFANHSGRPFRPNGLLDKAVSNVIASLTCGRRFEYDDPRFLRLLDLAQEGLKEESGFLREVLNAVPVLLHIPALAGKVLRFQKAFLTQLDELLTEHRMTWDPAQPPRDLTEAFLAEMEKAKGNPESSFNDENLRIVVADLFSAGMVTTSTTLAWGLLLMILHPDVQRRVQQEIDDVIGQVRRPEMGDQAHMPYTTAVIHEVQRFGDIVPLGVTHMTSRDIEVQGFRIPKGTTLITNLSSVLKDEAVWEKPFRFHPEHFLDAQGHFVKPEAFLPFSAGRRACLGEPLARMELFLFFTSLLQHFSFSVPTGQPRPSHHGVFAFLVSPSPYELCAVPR

Sequence of Sigma non-opioid intracellular receptor 1 (Q99720 whole entry): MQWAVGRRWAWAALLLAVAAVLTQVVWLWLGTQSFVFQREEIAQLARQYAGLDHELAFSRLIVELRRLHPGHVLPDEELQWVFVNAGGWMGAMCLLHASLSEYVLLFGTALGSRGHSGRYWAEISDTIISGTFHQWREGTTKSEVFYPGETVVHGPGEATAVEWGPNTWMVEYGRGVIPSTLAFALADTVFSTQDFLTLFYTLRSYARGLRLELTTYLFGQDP
Sequence of Kappa-type opioid receptor (P41145 whole entry): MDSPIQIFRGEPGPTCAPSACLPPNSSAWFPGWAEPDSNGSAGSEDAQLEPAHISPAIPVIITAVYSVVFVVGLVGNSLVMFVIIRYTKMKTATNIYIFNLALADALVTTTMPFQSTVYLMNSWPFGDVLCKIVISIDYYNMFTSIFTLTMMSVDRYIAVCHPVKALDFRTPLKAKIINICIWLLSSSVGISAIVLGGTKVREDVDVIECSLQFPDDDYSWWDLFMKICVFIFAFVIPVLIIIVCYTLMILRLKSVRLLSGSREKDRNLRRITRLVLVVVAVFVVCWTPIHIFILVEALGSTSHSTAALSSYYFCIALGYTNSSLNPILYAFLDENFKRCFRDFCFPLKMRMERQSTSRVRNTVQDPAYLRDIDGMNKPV

`N=C(Nc1ccccc1)Nc1ccccc1`: the IC50 entry (in data set [1]; in data set [2]; in data set [3]; against Adenosine receptor A1; at Cytochrome P450 1A2) was “Not Active” each time. The Ki result (in data set [1]; in data set [2]; on Cytochrome P450 1A2) was “Not Active” each time.
In the case of `S=C=Nc1cccc2ccccc12` [1-NAPHTHYLISOTHIOCYANATE], the IC50 result (in data set [1]; in data set [4]; in data set [2]; against Adenosine receptor A1; against Cytochrome P450 2D6) was “Not Active” throughout. Also, the Ki result (in data set [1]; in data set [2]; at Cytochrome P450 2D6) was “Not Active” each time.
For `CC(=O)Nc1ccc(O)cc1` [ACETAMINOPHEN], the IC50 result (in data set [1]; in data set [4]; in data set [2]; against Adenosine receptor A1; against Cytochrome P450 1A2; at Cytochrome P450 2D6) was “Not Active” in each case. The inhibition constant Ki entry (in data set [1]; in data set [2]; on Cytochrome P450 1A2; on Cytochrome P450 2D6) was “Not Active” in each case.
As to `O=C1CC2(CCCC2)CC(=O)N1CCCCN1CCN(c2ncccn2)CC1` [BUSPIRONE], the IC50 entry (in data set [1]; in data set [2]; in data set [3]; against Adenosine receptor A1; against Cytochrome P450 1A2; at Cytochrome P450 2D6) was “Not Active” throughout. For the same molecule, the Ki result (in data set [1]; in data set [2]; on Cytochrome P450 1A2; at Cytochrome P450 2D6) was “Not Active” throughout.
`C[C@@]12C(=O)OC(=O)[C@]1(C)[C@H]1CC[C@@H]2O1` [CANTHARIDIN]: the IC50 result (in data set [1]; in data set [4]; in data set [2]; on Adenosine receptor A1; at Cytochrome P450 1A2; on Cytochrome P450 2D6) was “Not Active” throughout. Further, the Ki result (in data set [1]; in data set [2]; at Cytochrome P450 1A2; at Cytochrome P450 2D6) was “Not Active” throughout.
For the molecule `O=NN(CCCl)C(=O)NCCCl` [CARMUSTINE], the half-inhibitory concentration (IC50) result (in data set [1]; in data set [4]; in data set [2]; in data set [3]; at Adenosine receptor A1) was “Not Active” throughout. Moreover, the inhibition constant (Ki) result in data set [1] and in data set [2] was “Not Active” in each case.
For `CC1=C(C(=O)O)N2C(=O)[C@@H](NC(=O)[C@H](N)c3ccccc3)[C@H]2SC1` [CEPHALEXIN ANHYDROUS], the half-maximal inhibitory concentration (IC50) entry (in data set [1]; in data set [4]; in data set [2]; in data set [3]; at Adenosine receptor A1) was “Not Active” each time. The Ki result in data set [1] and in data set [2] was “Not Active” each time.
Consider `O=C(N[C@H](CO)[C@H](O)c1ccc([N+](=O)[O-])cc1)C(Cl)Cl` [CHLORAMPHENICOL], for which the IC50 entry (in data set [1]; in data set [4]; in data set [2]; in data set [3]; on Adenosine receptor A1) was “Not Active” each time. For the same molecule, the Ki entry in data set [1] and in data set [2] was “Not Active” each time.
Consider `CCOC(=O)C(C)(C)Oc1ccc(Cl)cc1` [CLOFIBRATE], for which the 50% inhibitory concentration (IC50) entry (in data set [1]; in data set [4]; in data set [2]; in data set [3]; at Adenosine receptor A1) was “Not Active” each time. In addition, the Ki entry in data set [1] and in data set [2] was “Not Active” each time.
For `C[C@@H]1C[C@@H]([C@H](O)CC2CC(=O)NC(=O)C2)C(=O)[C@@H](C)C1` [CYCLOHEXIMIDE], the IC50 result (in data set [1]; in data set [4]; in data set [2]; against Adenosine receptor A1) was “Not Active” throughout. In addition, the Ki entry in data set [1] and in data set [2] was “Not Active” throughout.
Regarding `C/C=C/C[C@@H](C)[C@@H](O)[C@H]1C(=O)N[C@@H](CC)C(=O)N(C)CC(=O)N(C)[C@@H](CC(C)C)C(=O)N[C@@H](C(C)C)C(=O)N(C)[C@@H](CC(C)C)C(=O)N[C@@H](C)C(=O)N[C@H](C)C(=O)N(C)[C@@H](CC(C)C)C(=O)N(C)[C@@H](CC(C)C)C(=O)N(C)[C@@H](C(C)C)C(=O)N1C` [CYCLOSPORINE], the half-maximal inhibitory concentration (IC50) entry (in data set [1]; in data set [4]; in data set [2]; in data set [3]; against Adenosine receptor A1) was “Not Active” throughout. Besides, the Ki entry in data set [1] and in data set [2] was “Not Active” throughout.
Regarding `COP(=O)(OC)OC=C(Cl)Cl` [DICHLORVOS], the IC50 entry (in data set [1]; in data set [4]; in data set [2]; against Adenosine receptor A1; at Cytochrome P450 1A2; against Cytochrome P450 2D6) was “Not Active” throughout. Further, the Ki result (in data set [1]; in data set [2]; at Cytochrome P450 1A2; at Cytochrome P450 2D6) was “Not Active” throughout.
Take `NC(=O)NO` [HYDROXYUREA]: the IC50 result (in data set [1]; in data set [4]; in data set [2]; in data set [3]; against Adenosine receptor A1) was “Not Active” each time. Further, the inhibition constant Ki entry in data set [1] and in data set [2] was “Not Active” each time.
Turning to `COc1ccc2cc([C@H](C)C(=O)O)ccc2c1` [NAPROXEN], the IC50 result (in data set [1]; in data set [4]; in data set [2]; in data set [3]; against Adenosine receptor A1) was “Not Active” each time. The inhibition constant Ki result in data set [1] and in data set [2] was “Not Active” each time.
As for `COC(=O)C1=C(C)NC(C)=C(C(=O)OCC(C)C)C1c1ccccc1[N+](=O)[O-]` (configuration not stated) [NISOLDIPINE], the IC50 is 0.741 nM in data set [1] (read-out: IC50); “Not Active” in data set [4]; “Not Active” in data set [2]; “Not Active” in data set [3]; “Not Active” on Adenosine receptor A1. Besides, the figures for the Ki in data set [1] (read-out: Ki) and in data set [2] were 0.476 nM and “Not Active”, respectively.
For `CCn1cc(C(=O)O)c(=O)c2cc(F)c(N3CCN(C)CC3)cc21` [PEFLOXACIN], the IC50 result (in data set [1]; in data set [4]; in data set [2]; in data set [3]; at Adenosine receptor A1) was “Not Active” in each case. Further, the Ki entry in data set [1] and in data set [2] was “Not Active” each time.
As to `O=C(C1CCCCC1)N1CC(=O)N2CCc3ccccc3C2C1` (configuration not stated) [PRAZIQUANTEL], the IC50 result (in data set [1]; in data set [2]; in data set [3]; at Adenosine receptor A1; against Cytochrome P450 1A2; against Cytochrome P450 2D6) was “Not Active” in each case. Further, the Ki result (in data set [1]; in data set [2]; on Cytochrome P450 1A2; on Cytochrome P450 2D6) was “Not Active” throughout.
Consider CADMIUM DICHLORIDE, for which the IC50 result (in data set [1]; in data set [4]; in data set [2]; against Adenosine receptor A1; against Cytochrome P450 1A2; against Cytochrome P450 2D6) was “Not Active” each time. The Ki entry (in data set [1]; in data set [4]; in data set [2]; on Adenosine receptor A1; at Cytochrome P450 1A2; on Cytochrome P450 2D6) was “Not Active” throughout.

The values are drawn from ChEMBL document CHEMBL1909046, “DrugMatrix in vitro pharmacology data”.
